The values below come from patent US20060004088A1, “Furan derivatives for preventing and curing osteoporosis and pharmaceutical compositions containing the same” (OCT INC., priority 2002, published 2006).

Assay [1] deals with osteoclast progenitor cells. The assay is described as follows: Formation of TRAP-positive multinucleated cells from osteoclast progenitors. The note with it: for No. of TRAP(+) multinucleated cells: M-CSF + RANKL, untreated control 132.80 ± 10.50; for number of TRAP-positive multinucleated cells in treated cultures: text summary, concentration not stated, control 132. Type of assay: cell-based, mice. The protocol: First, bone marrow cells were isolated, as follow. After sacrificing 7-9 week female mice by cervical dislocation, femur and tibia were excised aseptically while removing attached soft tissues. After cutting both ends of long bones, 1 ml of an enzyme solution, containing 0.1% collagenase (Gibco), 0.05% trypsin and 0.5 mM EDTA (Gibco), was injected to the bone marrow cavity at one end using a syringe with a 26-guage needle, and bone marrow was then collected. After shaking the recovered bone marrow for 30 min, bone marrow cells were collected, and cultured in α-minimum essential medium (α-MEM) supplemented with 10% FBS for 24 hrs. Then, non-adherent cells were collected, which are osteoclast pregenitors, aliquotted onto culture plates at a density of 2×10^5 cells per well, and cultured for 8 days in α-MEM supplemented with 20 ng/ml of macrophage-colony stimulating factor (M-CSF, Peprotech, USA) and 30 ng/ml RANKL (Peprotech, USA). During the 8 days of culturing, the cells were treated with the Compound 1. Thereafter, osteoclast formation was investigated by fixing the cultured cells and then carrying out TRAP staining, as described in the following Experimental Example 2.2. In addition, resorption activity of osteoclasts was investigated by measuring the absorption area after removing osteoclasts in cultures in calcium phosphate-coated plates, as described in Experimental Example 2.3, below.
After cell culture, the adherent cells were washed with PBS, and TRAP staining was performed, as follows. After being fixed with citrate-acetate-formaldehyde for 5 min, the cells were incubated for 1 hr in acetate buffer (prewarmed at 37° C., pH 5.0) containing naphthol AS-BI phosphate, fast Garnet GBC and 7 mM tartrate buffer (pH 5.0). TRAP-positive multinucleated cells having 3 or more nuclei were considered as osteoclasts.

The test system of assay [2] is transcriptional factor Runx2. Put plainly: Runx2 expression, p6xOSE2-Luc luciferase assay in C2C12 cells. It is filed as cell-based, mouse. How it is done: (§1) In the following tests, three kinds of cell lines were used. The human osteosarcoma cell lines, MG-63 (ATCC No. CRL-1427) and HOS (ATCC No. CRL-1543), and mouse muscle C2C12 muscle cells (ATCC No. CRL-1772) were purchased from ATCC (American Type Culture Collection, Rockville, USA), and cultured in Dulbecco's modified Eagle's medium (DMEM) supplemented with 10% fetal bovine serum (FBS).
Primarily, transient transfection was carried out using a p6xOSE2-Luc vector, which was prepared by inserting into a pGL3 promoter vector six tandem copies of the OSE2 motif, the binding site of the transcriptional factor Runx2 that is a critical regulator for osteoblast differentiation. Runx2 expression levels were determined by luciferase assay. The test procedure will be described in more detail, as follows.
C2C12 cells were plated onto 6-well plates at a density of 1(10^5 cells per well, and cultured for 24 hrs in a 5% CO2 incubator.
Then, the cells transiently transfected with the p6xOSE2-Luc vector using a transfection reagent, LipofectAmine, as follows. The plasmid DNA was reacted with the transfection reagent for 15 min to form p6xOSE2-Luc DNA:lipofectamine complexes. During this reaction, culture medium was removed from each well of the plates, the cells were washed with FBS-free DMEM, and 800 μl of FBS-free DMEM was added to each well. […]

The subject of another assay is MG-63 osteoblasts. The assay is described as follows: Proliferation of MG-63 osteoblasts (3H-thymidine incorporation). Type of assay: cell-based, human. Conditions: for Proliferation rate of MG-63 cells, %: 1% FBS, untreated control = 100; for proliferation rate of osteoblasts compared to a control not treated: text summary, concentration not stated.
Text: as §1
In order to indirectly evaluate cytotoxicity of the Compound 1 and investigate effect of the Compound 1 naturally extracted on obsteoblast proliferation, proliferation of MG-63 osteoblasts was investigated by measuring the amount of ^3H-thymidine incorporated into cellular DNA upon DNA replication. The cells were aliquotted onto 24-well plates at a density of 2×10^4 cells per well. The next day, after exchanging culture medium to medium containing 1% FBS, the cells were treated with the compound 1 serially diluted at various concentrations and further cultured for 48 hrs. Four hours before finishing the culture of 48 hrs, ^3H-thymidine was added to the medium in an amount of 3 μCi per well. The cells were washed with phosphate buffer, and treated with 5% trichloroacetic acid (TCA) pre-cooled on ice. Each of the separated TCA-insoluble fractions was dissolved in 0.1 M NaOH. With a portion of each fraction, ^3H-thymidine uptake by the cells was measured using a liquid scintillation counter.

In assay [3] the test system is ovariectomized female white mice with onset of osteoporosis. Put plainly: Therapeutic effect on osteoporosis, bone mineral densitometer. It is filed as in vivo. How it is done:
After ovariectomy, female white mice weighing about 250 g were bred for four weeks. After checking the onset of osteoporosis in the mice, each of the mice was orally administered with 220 μl of the Compound 1 dissolved in 30 ml water for four weeks.
BMD measurement was performed before ovariectomy and every week for eight weeks after ovariectomy, using a bone mineral densitometer, XCT 540 Research SA made in Germany.
After anesthetizing the mice being bred in cages by intraperitoneal injection of a mixture of Ketamine HCl (ketara 10 mg/kg) and 2% xylazine HCl (Roupun 0.15 ml/kg), BMD measurement was made at a voxel size of 0.1×0,1 mm^2 and threshold values of 280 mg/cm^2 for cancellous bone and 500 mg/cm^2 for compact bone. The analysis sites at the proximal tibias were determined by Scout scans (10 mm/sec), and BMD was measured at three slices at the determined sites by CT scans (7 mm/sec). BMD measurement was performed twice or more at the same site every week during eight weeks after ovariectomy.

With `O=Cc1ccc(CO)o1` [Compound 1, 5-hydroxymethylfuran-2-carboxyaldehyde], the “No. of TRAP(+) multinucleated cells” value is given as 77.20 ± 6.73 in assay [1] (10^−4 M Compound 1, 8 days); 108.20 ± 4.57 in assay [1] (10^−5 M Compound 1, 8 days); 103.60 ± 6.95 in assay [1] (10^−6 M Compound 1, 8 days); 120.00 ± 6.42 in assay [1] (10^−7 M Compound 1, 8 days); 105.20 ± 8.58 in assay [1] (10^−8 M Compound 1, 8 days). Also, the results for the “number of TRAP-positive multinucleated cells in treated cultures” value in assay [1] and in assay [1] (listed as Example 1) were 77 and “remarkably reduced”, respectively. In assay [2], the “effect on activity of Runx2 (in words)” value was “increase the activity of Runx2”. For the same molecule, the “Proliferation rate of MG-63 cells, %” value was determined as 105.50 ± 5.90% in the assay on MG-63 osteoblasts (10^−4 M Compound 1, 48 hrs); 102.63 ± 8.53% with MG-63 osteoblasts (10^−5 M Compound 1, 48 hrs); 105.56 ± 5.49% in the assay on MG-63 osteoblasts (10^−6 M Compound 1, 48 hrs); 103.91 ± 5.81% with MG-63 osteoblasts (10^−7 M Compound 1, 48 hrs); 101.38 ± 4.65% in the assay on MG-63 osteoblasts (10^−8 M Compound 1, 48 hrs). Further, the figures for the “proliferation rate of osteoblasts compared to a control not treated” value in the assay with MG-63 osteoblasts and with MG-63 osteoblasts (listed as Example 1) were “over 105%” and at least 105%, respectively. In addition, the “decrease of BMD compared to that before the ovariectomy” value in assay [3] (control about 22%) is “about 15%”. Besides, the “reduction of BMD compared to a control (in words)” value in assay [3] (oral 220 μl/day for four weeks after four weeks of osteoporosis development) is reported as “very slight reduction of BMD”. Moreover, the “Change in BMD, %” value in assay [3] (week 1 after ovariectomy (administration begins after week 4), control −3) is −2.9%; in assay [3] (week 2 after ovariectomy (administration begins after week 4), control −10), −10.5%; in assay [3] (week 3 after ovariectomy (administration begins after week 4), control −15), −14%; in assay [3] (week 4 after ovariectomy (administration begins after week 4), control −19), −17%; in assay [3] (week 5 after ovariectomy, oral 220 μl in 30 ml water from week 4, control −21.8) it was −16.5%; in assay [3] (week 7 after ovariectomy, oral 220 μl in 30 ml water from week 4, control −25.9) it was −19%. Moreover, the “Change in BMD, %” value in assay [3] (week 8 after ovariectomy, oral 220 μl in 30 ml water from week 4, control −32) is recorded as −21.4%.
